Columns and labels:
[1] = Amount of γ-CEHC excreted in urine after oral γ-tocotrienol or γ-tocopherol in vitamin E-deficient rats; format: in vivo, Sprague-Dawley strain male rats; details: oral 10 mg/0.5 ml in stripped corn oil, total over 48 hours, versus γ-tocopherol in the same amount, FIG. 2
Protocol: (§1) Seven-week-old Sprague-Dawley strain male rats, purchased from Nippon Clare Co., Ltd., were preliminarily bred with solid feed CE-2 (Nippon Clare Co., Ltd.) for 1 week and then bred with vitamin E-deficient feed for 4 weeks. The rats were placed in a stainless steel cage/rat, and the breeding room was maintained at a temperature of 22±1° C. in 50 % humidity. The animals were allowed feed and water ad libitum.
(§2) The feed was prepared by adding 10% corn oil (stripped corn oil) from which vitamin E had been removed by molecular distillation, to vitamin E-deficient powdery feed.
(§3) The bred vitamin E-deficient-rats were divided into 2 groups and fasted for 17 hours, and each rat in one group was orally given 10 mg/0.5 ml γ-tocotrienol dissolved in stripped corn oil, while as the control, each rat in the other group was orally given 10 mg/0.5 ml γ-tocopherol in analogous manner. After the administration, the rats in a urine collection group were placed in a metabolic cage/rat, and their urine was collected at 6-hours intervals for 48 hours during which a collection vessel was cooled on dry ice. The rats in a bile collection group were anesthetized with Nembutal in 2 hours after the administration in consideration of absorption time, and the abdomens of the rats were opened with their back fixed under anesthesia and a canula was inserted into the bile duct. […]

[2] = Amount of γ-CEHC excreted in bile after oral γ-tocotrienol or γ-tocopherol in vitamin E-deficient rats; format: in vivo, Sprague-Dawley strain male rats; details: oral 10 mg/0.5 ml in stripped corn oil, bile collected for 24 hours, versus γ-tocopherol, FIG. 3
Protocol: as §1, §2, §3

[3] = Effect of γ-tocotrienol on urine volume and on excretion of sodium and potassium into urine; format: in vivo, SD strain male rats; details: for volume of urine, corrected with creatinine: high-salt feed groups, FIG. 4
Protocol: Seven-week-old SD strain male rats (n=20) were preliminarily bred with solid feed and divided into 2 groups. One group was given vitamin E-deficient feed (AIN-76) and used as a control group. The other group was given high-salt feed prepared by adding 5% common salt to 1 kg vitamin E-deficient feed and used as a group given high-salt (high-Na) feed. Each animal in both the groups was given 20 g feed/day for 1 week and 25 g feed/day during a period of from the second to fourth weeks. 150 ml of purified water was given as drinking water, and the remainder of the water was measured. After 4 weeks, each group was further divided into 2 groups, and each rat in one group was given 10 mg γ-tocotrienol (control +γ-tocotrienol, High-Na+γ-tocotrienol) dissolved in stripped corn oil while the other group i.e. the control was given stripped corn oil (control, High-Na) for 3 consecutive days respectively, and after administration, their urine, while being frozen on dry ice, was collected at 6-hours intervals for 24 hours. The amounts of sodium and potassium in the urine were determined by the atomic absorption method and the amount of γ-CEHC by the ECD-HPLC method.

CC(C)=CCC/C(C)=C/CC/C(C)=C/CCC1(C)CCc2cc(O)c(C)c(C)c2O1 (stereo not drawn) [γ-tocotrienol, 2,7,8-trimethyl-2-(4,8,12-trimethyltrideca-3,7,11-trienyl)chroman-6-ol]
amount of γ-CEHC excreted in urine for a period of up to 48 hours [1]: significantly higher than in the group given γ-tocopherol
γ-CEHC excreted into the bile [2]: larger in the group given γ-tocotrienol than in the group given γ-tocopherol
amount of potassium excreted in urine ([3]; 4 groups (control and high-salt feed, with or without 10 mg γ-tocotrienol), atomic absorption method, FIG. 6): the influence of γ-tocotrienol administration was not observed
volume of urine, corrected with creatinine ([3]; 10 mg γ-tocotrienol for 3 consecutive days versus stripped corn oil, over 24 hours): tended to be larger in the group given γ-tocotrienol
volume of urine, corrected with creatinine ([3]; 10 mg γ-tocotrienol versus stripped corn oil, 6 to 12 hours after the administration): significantly increased for 6 to 12 hours after the administration
amount of sodium excreted in urine ([3]; high-salt group, 10 mg γ-tocotrienol versus stripped corn oil, atomic absorption method, FIG. 5): significantly larger amount of excreted sodium for a period of up to 12 hours after the administration

From patent US20030139467A1, “Diuretics containing y-tocotrienol” (priority 2000, published 2003)
